# “Also recorded” adds a separate entry of the source.
# Tests used:
# [1] = system: human patients with advanced solid tumors; test: Dose escalation study in human patients with advanced solid tumors: safety, adverse events; format: in vivo
# Protocol: (§1) A dose escalation study of N-[5-(3,5-difluorobenzyl)-1H-indazol-3-yl]-4-(4-methyl-piperazin-1-yl)-2-(tetrahydro-2H-pyran-4-ylamino) benzamide was conducted in human patients with advanced solid tumors. N-[5-(3,5-difluorobenzyl)-1H-indazol-3-yl]-4-(4-methyl-piperazin-1-yl)-2-(tetrahydro-2H-pyran-4-ylamino) benzamide was dosed orally once/day in a 4 day on, 3 day off schedule for 3 weeks, followed by a 7 day rest period, in continuous 28-day cycles (Schedule A); once/day in continuous 28-day cycles (Schedule B); and once/day in a 4 day on, 3 day off schedule without interruption in continuous 28-day cycles (Schedule C). A minimum of 3 patients were enrolled at each dose level. Endpoints include safety, PK, and tumor response by response evaluation criteria in solid tumors (RECIST).
# (§2) Schedule A evaluated ascending oral doses of N-[5-(3,5-difluorobenzyl)-1H-indazol-3-yl]-4-(4-methyl-piperazin-1-yl)-2-(tetrahydro-2H-pyran-4-ylamino) benzamide once daily (fasted state) in a 4-day on, 3-day off schedule for 3 weeks, followed by a 7-day rest period, in continuous 28-day cycles. Dose escalation was conducted according to the standard ‘3+3’ scheme.
# (§3) Schedule B evaluated ascending oral doses of N-[5-(3,5-difluorobenzyl)-1H-indazol-3-yl]-4-(4-methyl-piperazin-1-yl)-2-(tetrahydro-2H-pyran-4-ylamino) benzamide once daily (fed state) without rest, in continuous 28-day cycles.
# (§4) Schedule C evaluated ascending oral doses of N-[5-(3,5-difluorobenzyl)-1H-indazol-3-yl]-4-(4-methyl-piperazin-1-yl)-2-(tetrahydro-2H-pyran-4-ylamino) benzamide once daily (fed state) in a 4-day on, 3-day off schedule for 4 weeks without rest, in continuous 28-day cycles.
# [2] = system: Non-Small Cell Lung Cancer (NSCLC); test: Dose escalation study: tumor response by RECIST, NSCLC patients; format: in vivo, human
# Protocol: as §1, §2, §3, §4
# [3] = Dose escalation study in human patients with advanced solid tumors: PK; format: in vivo
# Protocol: as §1, §2, §3, §4
# advanced solid tumors = test: Dose escalation study: tumor response by RECIST, all patients; format: in vivo, human
# Protocol: as §1, §2, §3, §4
# Neuroblastoma (NB) = test: Dose escalation study: tumor response by RECIST, neuroblastoma patient; format: in vivo, human; details: person, metastatic NB, ALK mutation, Schedule A
# Protocol: as §1, §2
# Schedule B evaluated ascending oral doses of N-[5-(3,5-difluorobenzyl)-1H-indazol-3-yl]-4-(4-methyl-piperazin-1-yl)-2-(tetrahydro-2H-pyran-4-ylamino) benzamide once daily (fed state) without rest, in continuous 28-day cycles. […]
# Colorectal Cancer (CRC) = test: Dose escalation study: tumor response by RECIST, CRC patient; format: in vivo, human; details: person, metastatic CRC, TrkA rearrangement, 1600 mg/m^2, Schedule A
# Protocol: as §1, §2, §3, §4
smiles,measurement,setting,value
"CN1CCN(c2ccc(C(=O)Nc3n[nH]c4ccc(Cc5cc(F)cc(F)c5)cc34)c(NC3CCOCC3)c2)CC1 [N-[5-(3,5-difluorobenzyl)-1H-indazol-3-yl]-4-(4-methyl-piperazin-1-yl)-2-(tetrahydro-2H-pyran-4-ylamino) benzamide]",Abdominal pain G1 (%),"[1]; 25 patients, all schedules",16%
same,"Abdominal pain G1, number of patients","[1]; 25 patients, all schedules",4
same,Abdominal pain G2 (%),"[1]; 25 patients, all schedules",8%
same,"Abdominal pain G2, number of patients","[1]; 25 patients, all schedules",2
same,Abdominal pain Total (%),"[1]; 25 patients, all schedules",24%
same,"Abdominal pain Total, number of patients","[1]; 25 patients, all schedules",6
same,Arthralgia G1 (%),"[1]; 25 patients, all schedules",12%
same,"Arthralgia G1, number of patients","[1]; 25 patients, all schedules",3
same,Arthralgia G2 (%),"[1]; 25 patients, all schedules",12%
same,"Arthralgia G2, number of patients","[1]; 25 patients, all schedules",3
same,Arthralgia Total (%),"[1]; 25 patients, all schedules",24%
same,"Arthralgia Total, number of patients","[1]; 25 patients, all schedules",6
same,Asthenia G1 (%),"[1]; 25 patients, all schedules",36%
same,"Asthenia G1, number of patients","[1]; 25 patients, all schedules",9
same,Asthenia G2 (%),"[1]; 25 patients, all schedules",12%
same,"Asthenia G2, number of patients","[1]; 25 patients, all schedules",3
same,Asthenia Total (%),"[1]; 25 patients, all schedules",52%
same,"Asthenia Total, number of patients","[1]; 25 patients, all schedules",13
same,Back Pain G1 (%),"[1]; 25 patients, all schedules",20%
same,"Back Pain G1, number of patients","[1]; 25 patients, all schedules",5
same,Back Pain G2 (%),"[1]; 25 patients, all schedules",4%
same,"Back Pain G2, number of patients","[1]; 25 patients, all schedules",1
same,Back Pain Total (%),"[1]; 25 patients, all schedules",24%
same,"Back Pain Total, number of patients","[1]; 25 patients, all schedules",6
same,Cough G1 (%),"[1]; 25 patients, all schedules",16%
same,"Cough G1, number of patients","[1]; 25 patients, all schedules",4
same,Cough G2 (%),"[1]; 25 patients, all schedules",4%
same,"Cough G2, number of patients","[1]; 25 patients, all schedules",1
same,Cough Total (%),"[1]; 25 patients, all schedules",20%
same,"Cough Total, number of patients","[1]; 25 patients, all schedules",5
same,Diarrhea G1 (%),"[1]; 25 patients, all schedules",24%
same,"Diarrhea G1, number of patients","[1]; 25 patients, all schedules",6
same,Diarrhea G2 (%),"[1]; 25 patients, all schedules",8%
same,"Diarrhea G2, number of patients","[1]; 25 patients, all schedules",2
same,Diarrhea Total (%),"[1]; 25 patients, all schedules",32%
same,"Diarrhea Total, number of patients","[1]; 25 patients, all schedules",8
same,Dysgeusia G1 (%),"[1]; 25 patients, all schedules",24%
same,"Dysgeusia G1, number of patients","[1]; 25 patients, all schedules",6
same,Dysgeusia G2 (%),"[1]; 25 patients, all schedules",0 (0) %
same,"Dysgeusia G2, number of patients","[1]; 25 patients, all schedules",0 (0)
same,Dysgeusia Total (%),"[1]; 25 patients, all schedules",24%
same,"Dysgeusia Total, number of patients","[1]; 25 patients, all schedules",6
same,Dyspnea G1 (%),"[1]; 25 patients, all schedules",12%
same,"Dyspnea G1, number of patients","[1]; 25 patients, all schedules",3
same,Dyspnea G2 (%),"[1]; 25 patients, all schedules",4%
same,"Dyspnea G2, number of patients","[1]; 25 patients, all schedules",1
same,Dyspnea Total (%),"[1]; 25 patients, all schedules",24%
same,"Dyspnea Total, number of patients","[1]; 25 patients, all schedules",6
same,Headache G1 (%),"[1]; 25 patients, all schedules",24%
same,"Headache G1, number of patients","[1]; 25 patients, all schedules",6
same,Headache G2 (%),"[1]; 25 patients, all schedules",0 (0) %
same,"Headache G2, number of patients","[1]; 25 patients, all schedules",0 (0)
same,Headache Total (%),"[1]; 25 patients, all schedules",24%
same,"Headache Total, number of patients","[1]; 25 patients, all schedules",6
same,Myalgia G1 (%),"[1]; 25 patients, all schedules",24%
same,"Myalgia G1, number of patients","[1]; 25 patients, all schedules",6
same,Myalgia G2 (%),"[1]; 25 patients, all schedules",4%
same,"Myalgia G2, number of patients","[1]; 25 patients, all schedules",1
same,Myalgia Total (%),"[1]; 25 patients, all schedules",28%
same,"Myalgia Total, number of patients","[1]; 25 patients, all schedules",7
same,Nausea G1 (%),"[1]; 25 patients, all schedules",56%
same,"Nausea G1, number of patients","[1]; 25 patients, all schedules",14
same,Nausea G2 (%),"[1]; 25 patients, all schedules",8%
same,"Nausea G2, number of patients","[1]; 25 patients, all schedules",2
same,Nausea Total (%),"[1]; 25 patients, all schedules",64%
same,"Nausea Total, number of patients","[1]; 25 patients, all schedules",16
same,Paresthesia G1 (%),"[1]; 25 patients, all schedules",60%
same,"Paresthesia G1, number of patients","[1]; 25 patients, all schedules",15
same,Paresthesia G2 (%),"[1]; 25 patients, all schedules",0 (0) %
same,"Paresthesia G2, number of patients","[1]; 25 patients, all schedules",0 (0)
same,Paresthesia Total (%),"[1]; 25 patients, all schedules",60%
same,"Paresthesia Total, number of patients","[1]; 25 patients, all schedules",15
same,Pyrexia G1 (%),"[1]; 25 patients, all schedules",24%
same,"Pyrexia G1, number of patients","[1]; 25 patients, all schedules",6
same,Pyrexia G2 (%),"[1]; 25 patients, all schedules",0 (0) %
same,"Pyrexia G2, number of patients","[1]; 25 patients, all schedules",0 (0)
same,Pyrexia Total (%),"[1]; 25 patients, all schedules",24%
same,"Pyrexia Total, number of patients","[1]; 25 patients, all schedules",6
same,Vomiting G1 (%),"[1]; 25 patients, all schedules",28%
same,"Vomiting G1, number of patients","[1]; 25 patients, all schedules",7
same,Vomiting G2 (%),"[1]; 25 patients, all schedules",8%
same,"Vomiting G2, number of patients","[1]; 25 patients, all schedules",2
same,Vomiting Total (%),"[1]; 25 patients, all schedules",36%
same,"Vomiting Total, number of patients","[1]; 25 patients, all schedules",9
same,"possibly drug-related Grade >3 AE observed (asthenia), number","[1]; Grade 3 in one patient, 1200 mg/m^2, Schedule A, subsided with dose reduction to 800 mg/m^2/day",1
same,severity of AEs,[1]; all dosing schedules tested,Most AEs<Grade 2
same,tolerability,"[1]; all dosing schedules tested, intermittent and daily continuous",well tolerated in all dosing schedules tested
same,"DLTs, study discontinuations due to AEs, drug-related SAEs",[1]; any dosing schedule,"No drug limiting toxicities, study discontinuations due to adverse events, or drug-related serious adverse events were reported; also recorded: No DLTs, study discontinuations due to AEs, or drug-related SAEs were reported"
same,most common adverse events (mainly grade 1-2) considered possibly treatment-related,"[1]; human patients, oral","nausea, paresthesia, vomiting, diarrhea, asthenia, myalgia, arthralgia, and dysgeusia"
same,"possibly treatment-related grade 3 AE of asthenia, number","[1]; human patients, oral",one
same,tumor response,"[2]; person one, ROS1 rearrangement, s/p 3 cycles of chemotherapy, 400 mg/m2/day, Schedule C",partial response
same,cycles until response achieved,"[2]; person one, ROS1 rearrangement, 400 mg/m2/day, Schedule C",1 cycle
same,tumor response,"[2]; person two, ROS1 rearrangement, s/p 2 cycles of chemotherapy, 400 mg/m2/day, Schedule C",complete response
same,cycles until response achieved,"[2]; person two, ROS1 rearrangement, 400 mg/m2/day, Schedule C",2 cycles
same,cycles until response achieved,"[2]; person, ALK rearrangement, 1200 mg/m2/day, Schedule A",4 cycles
same,tumor response,"[2]; person, CNS metastases, ROS1 rearrangement, s/p chemotherapy, erlotinib, 1200 mg/m^2/day, Schedule A",partial response
same,cycles until response achieved,"[2]; person, CNS metastases, ROS1 rearrangement, 1200 mg/m^2/day, Schedule A",2 cycles
same,tumor response,"[2]; person, metastatic adenocarcinoma, ALK rearrangement, s/p chemotherapy, crizotinib, 1200 mg/m2/day, Schedule A",partial response
same,exposure at top dose (reason Schedule A was terminated),"[3]; Schedule A, 1600 mg/m2/day",plateau
same,mean plasma half-life,"[3]; human patients, oral once/day, following administration",17 to 44 h
same,Exposure versus dose,"[3]; human patients, oral, dosing Schedule A",increased in an approximate dose proportional manner up to doses of 800 mg/m^2
same,number of partial responses durable >9 cycles,advanced solid tumors; 25 patients evaluated,3
same,number of partial responses,"advanced solid tumors; 25 patients evaluated, NSCLC, CRC and NB with TrkA, ROS1, and ALK molecular alterations",5
same,complete response,"advanced solid tumors; 25 patients evaluated, patient with NSCLC with a ROS1 molecular alteration",a complete response
same,number of patients with prolonged stable disease (11+ cycles),advanced solid tumors; NSCLC and pancreatic adenocarcinoma,2
same,cycles until response achieved,Neuroblastoma (NB); 200 to 1200 mg/m^2/day,12 cycles
same,tumor response,"Neuroblastoma (NB); started at 200 mg/m^2/day, escalated to 1200 mg/m^2/day",partial response
same,tumor response,"Colorectal Cancer (CRC); s/p chemotherapy, cetuximab",partial response
same,cycles until response achieved,Colorectal Cancer (CRC),1 cycle
same,duration of partial response before progressive disease,Colorectal Cancer (CRC),4 cycles

# — patent publication US10231965B2, “Molecules for administration to ROS1 mutant cancer cells” (Ignyta, Inc., priority 2014, dated 2019)
